Experimental findings from patent US12371428B2 (Exelixis, Inc., priority 2019, dated 2025) are described below.

In general, IC50 refers to the concentration that gives 50% inhibition.

Bounds are passed on as bounds.

The target of assay [1] is Human KDR (residues 790-1356) (Homo sapiens (Human), UniProt P35968). Put plainly: Human KDR kinase assay, HTRF KinEase (Example B-2). In kind it is biochemical. The conditions noted are these: protocol of Example B-2 (other compounds). The procedure, abridged: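 Human KDR residues 790-1356 (0.1 ng/well) in buffer with 5 mM MgCl2, 1 mM MnCl2, 1 mM DTT, biotinylated peptide substrate, ATP at Km (4.0 μM), 3% DMSO, 10 compound concentrations; 40 min, room temperature. EDTA stop, streptavidin-XL665/Eu-TK antibody HTRF read 665/620 nm; 4-parameter IC50.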
Chain of Human KDR (residues 790-1356) (P35968 790-1356): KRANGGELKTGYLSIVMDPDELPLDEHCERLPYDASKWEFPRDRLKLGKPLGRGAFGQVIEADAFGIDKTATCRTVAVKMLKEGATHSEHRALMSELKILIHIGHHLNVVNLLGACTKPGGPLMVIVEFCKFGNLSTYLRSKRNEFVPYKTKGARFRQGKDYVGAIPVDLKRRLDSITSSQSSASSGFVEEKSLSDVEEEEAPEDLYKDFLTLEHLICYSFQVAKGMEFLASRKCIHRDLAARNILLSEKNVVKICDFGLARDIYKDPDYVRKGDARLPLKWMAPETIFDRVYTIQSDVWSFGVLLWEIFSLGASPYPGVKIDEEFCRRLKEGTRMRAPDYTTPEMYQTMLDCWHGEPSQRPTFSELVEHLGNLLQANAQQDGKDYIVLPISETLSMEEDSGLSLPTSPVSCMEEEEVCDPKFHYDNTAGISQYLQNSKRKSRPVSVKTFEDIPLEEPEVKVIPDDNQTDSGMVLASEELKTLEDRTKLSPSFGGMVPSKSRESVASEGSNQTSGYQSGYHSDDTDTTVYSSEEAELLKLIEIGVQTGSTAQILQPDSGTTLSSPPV

Assay [2] has as its target AXL (phospho-AXL, Gas6-stimulated A-172 glioblastoma cells) (Homo sapiens (Human), UniProt P30530). The assay can be described thus: AXL autophosphorylation ELISA in A-172 cells (Example E). In kind it is cell-based. To be noted: cellular activity; AXL autophosphorylation ELISA in A-172 cells; read-out: Axl IC50. In short, it runs like this:
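Phospho-AXL in lysates was quantified by ELISA, normalised to DMSO (100%) and reference inhibitor (0%) controls. IC50 by 4-parameter logistic fit.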
On the technique in general: An ELISA detects its analyte on a solid surface through an enzyme-linked reagent.

Assay [3] has as its target KDR (phospho-KDR, VEGF165-stimulated HUVEC cells) (Homo sapiens (Human), UniProt P35968). Put plainly: KDR autophosphorylation ELISA in HUVEC cells (Example G). The assay is classed as cell-based. To be noted: cellular activity; KDR autophosphorylation ELISA in HUVEC cells. The procedure, abridged:
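Cells seeded, grown 24 h at 37 °C, starved 24 h serum-free; cpd 8-pt curve, 0.3% DMSO, 1 h; VEGF165 100 ng/mL, 5 min; cold PBS wash, lysis with orthovanadate and protease/phosphatase inhibitors; pKDR ELISA; IC50 by 4-parameter logistic regression.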

Chain of KDR (phospho-KDR, VEGF165-stimulated HUVEC cells) (P35968 20-1356): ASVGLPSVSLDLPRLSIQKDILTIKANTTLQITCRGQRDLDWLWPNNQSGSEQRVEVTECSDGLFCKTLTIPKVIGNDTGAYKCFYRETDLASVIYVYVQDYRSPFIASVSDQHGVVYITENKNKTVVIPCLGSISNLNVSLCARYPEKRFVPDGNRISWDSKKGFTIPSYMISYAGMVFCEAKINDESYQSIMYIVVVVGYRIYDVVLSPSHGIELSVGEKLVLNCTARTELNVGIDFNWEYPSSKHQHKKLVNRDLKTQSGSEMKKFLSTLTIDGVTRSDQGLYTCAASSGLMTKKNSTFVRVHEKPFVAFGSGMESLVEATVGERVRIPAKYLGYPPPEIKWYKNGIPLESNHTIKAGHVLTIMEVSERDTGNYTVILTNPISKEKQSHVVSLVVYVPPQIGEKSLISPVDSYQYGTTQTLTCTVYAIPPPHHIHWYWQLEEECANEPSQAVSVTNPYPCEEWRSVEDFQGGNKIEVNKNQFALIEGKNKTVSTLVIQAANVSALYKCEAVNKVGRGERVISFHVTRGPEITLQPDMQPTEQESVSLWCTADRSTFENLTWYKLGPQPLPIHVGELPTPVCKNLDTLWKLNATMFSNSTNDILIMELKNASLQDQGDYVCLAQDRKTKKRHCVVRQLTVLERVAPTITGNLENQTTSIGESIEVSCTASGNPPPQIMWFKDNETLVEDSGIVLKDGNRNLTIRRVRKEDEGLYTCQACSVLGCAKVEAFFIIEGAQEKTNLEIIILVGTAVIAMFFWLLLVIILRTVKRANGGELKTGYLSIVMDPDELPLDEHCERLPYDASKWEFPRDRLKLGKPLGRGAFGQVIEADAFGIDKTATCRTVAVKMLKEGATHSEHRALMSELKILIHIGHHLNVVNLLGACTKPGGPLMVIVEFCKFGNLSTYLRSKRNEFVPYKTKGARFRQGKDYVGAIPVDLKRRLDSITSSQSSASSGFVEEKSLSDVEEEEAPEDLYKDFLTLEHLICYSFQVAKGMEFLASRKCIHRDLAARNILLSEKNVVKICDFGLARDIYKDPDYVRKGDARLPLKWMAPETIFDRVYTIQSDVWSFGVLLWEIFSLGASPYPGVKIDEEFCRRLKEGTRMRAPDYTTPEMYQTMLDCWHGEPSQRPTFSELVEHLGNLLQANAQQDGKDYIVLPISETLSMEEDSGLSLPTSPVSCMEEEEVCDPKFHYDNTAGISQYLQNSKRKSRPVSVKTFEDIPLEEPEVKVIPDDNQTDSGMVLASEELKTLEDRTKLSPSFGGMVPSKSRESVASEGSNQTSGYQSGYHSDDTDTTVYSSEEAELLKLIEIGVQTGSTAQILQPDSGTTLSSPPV
Chain of AXL (phospho-AXL, Gas6-stimulated A-172 glioblastoma cells) (P30530 26-894): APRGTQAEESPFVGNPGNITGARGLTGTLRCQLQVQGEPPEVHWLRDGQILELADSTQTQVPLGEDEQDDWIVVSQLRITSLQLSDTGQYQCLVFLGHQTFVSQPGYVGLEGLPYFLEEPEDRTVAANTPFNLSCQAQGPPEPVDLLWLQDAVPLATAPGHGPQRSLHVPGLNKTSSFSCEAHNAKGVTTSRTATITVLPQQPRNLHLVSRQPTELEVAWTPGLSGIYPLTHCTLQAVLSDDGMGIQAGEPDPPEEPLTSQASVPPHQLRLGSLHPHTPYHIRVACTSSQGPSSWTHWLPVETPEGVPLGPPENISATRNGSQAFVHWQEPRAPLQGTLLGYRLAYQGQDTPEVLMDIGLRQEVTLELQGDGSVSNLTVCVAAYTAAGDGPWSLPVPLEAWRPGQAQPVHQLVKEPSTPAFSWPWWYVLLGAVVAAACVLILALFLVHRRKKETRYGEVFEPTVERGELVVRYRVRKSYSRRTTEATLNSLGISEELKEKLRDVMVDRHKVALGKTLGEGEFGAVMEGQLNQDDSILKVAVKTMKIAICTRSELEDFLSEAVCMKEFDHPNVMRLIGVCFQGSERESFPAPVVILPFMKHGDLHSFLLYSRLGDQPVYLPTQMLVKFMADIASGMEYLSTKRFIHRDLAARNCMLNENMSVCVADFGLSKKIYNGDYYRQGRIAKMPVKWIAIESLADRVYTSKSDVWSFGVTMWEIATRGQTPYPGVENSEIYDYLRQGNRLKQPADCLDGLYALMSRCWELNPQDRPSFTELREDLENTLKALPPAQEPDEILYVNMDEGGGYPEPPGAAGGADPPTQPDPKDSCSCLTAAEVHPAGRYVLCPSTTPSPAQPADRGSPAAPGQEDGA

Turning to `COc1cc2nccc(Oc3ncc(NC(=O)c4cn(C5CC5)cc(-c5ccc(F)cc5)c4=O)cc3F)c2cc1OC` [Compound 399, 1-cyclopropyl-N-[6-(6,7-dimethoxyquinolin-4-yl)oxy-5-fluoropyridin-3-yl]-5-(4-fluorophenyl)-4-oxopyridine-3-carboxamide], the IC50 was > 0.3 µM in assay [1], < 0.1 µM in assay [2] and > 0.3 µM in assay [3].
For the molecule `COc1ccc2nccc(Oc3ccc(NC(=O)c4ncc(C)n(-c5ccc(F)cc5)c4=O)cc3F)c2n1` [Compound 264, N-[3-Fluoro-4-[(6-methoxy-1,5-naphthyridin-4-yl)oxy]phenyl]-4-(4-fluorophenyl)-5-methyl-3-oxopyrazine-2-carboxamide], the 50% inhibitory concentration (IC50) in assay [1] and in assay [3] was > 0.3 µM throughout.
Turning to `Cc1ccc(C(=O)Nc2ccc(Oc3ccnc4cc(OCc5ccccc5)cnc34)c(F)c2)c(=O)n1-c1ccc(F)cc1` [Compound 275, 1-(4-Fluorophenyl)-N-[3-fluoro-4-[(7-phenylmethoxy-1,5-naphthyridin-4-yl)oxy]phenyl]-6-methyl-2-oxopyridine-3-carboxamide], the results for the IC50 in assay [1] and in assay [3] were 0.1 to 0.3 µM and < 0.1 µM, respectively.
As to `CCn1cc(C(=O)Nc2ccc(Oc3ccnc4cc(OC)cnc34)c(F)c2)c(=O)c(-c2ccc(F)cc2)c1CO` [Compound 273, 1-Ethyl-N-[3-fluoro-4-[(7-methoxy-1,5-naphthyridin-4-yl)oxy]phenyl]-5-(4-fluorophenyl)-6-(hydroxymethyl)-4-oxopyridine-3-carboxamide], the IC50 in assay [1] and in assay [3] was > 0.3 µM each time.
With `Cc1nc(C)c(-c2ccc(F)cc2)c(O)c1C(=O)Nc1ccc(Oc2ccnc3cc(OCc4ccccc4)cnc23)c(F)c1` [Compound 277, 5-(4-Fluorophenyl)-N-[3-fluoro-4-[(7-phenylmethoxy-1,5-naphthyridin-4-yl)oxy]phenyl]-4-hydroxy-2,6-dimethylpyridine-3-carboxamide], the IC50 in assay [1] is 0.1 to 0.3 µM; in assay [3], < 0.1 µM.
`COc1ccc2nccc(Oc3ccc(NC(=O)c4ncc(C)n(-c5ccc(F)cc5)c4=O)cc3)c2n1` [Compound 378, 4-(4-fluorophenyl)-N-[4-[(6-methoxy-1,5-naphthyridin-4-yl)oxy]phenyl]-5-methyl-3-oxopyrazine-2-carboxamide]: the IC50 in assay [1] and in assay [3] was > 0.3 µM throughout.
With `COc1cc2nccc(Oc3ccc(NC(=O)c4cn(C)cc(-c5c(C)cc(F)cc5C)c4=O)cc3F)c2nc1OC` [Compound 268, N-[4-[(6,7-Dimethoxy-1,5-naphthyridin-4-yl)oxy]-3-fluorophenyl]-5-(4-fluoro-2,6-dimethylphenyl)-1-methyl-4-oxopyridine-3-carboxamide], the IC50 in assay [1] and in assay [3] was > 0.3 µM throughout.
Take `COCc1ncc(C(=O)Nc2ccc(Oc3ccnc4cc(OC)c(OC)nc34)c(F)c2)c(O)c1-c1ccc(F)cc1` [Compound 301, N-[4-[(6,7-Dimethoxy-1,5-naphthyridin-4-yl)oxy]-3-fluorophenyl]-5-(4-fluorophenyl)-4-hydroxy-6-(methoxymethyl)pyridine-3-carboxamide]: the IC50 in assay [1] and in assay [3] was < 0.1 µM each time.
